Results published in US9260435B2, “Substituted imidazopyrazines as Akt kinase inhibitors” (Bayer Intellectual Property GmbH, priority 2012, dated 2016).

How the values were obtained:
[1] = tested on: phospho-AKT at S473; test: Cellular p-AKT1/2/3-S473 assay in KPL-4 cells; assay type: cell-based; settings: Homo sapiens, KPL4; KPL-4 breast tumour cell line, 2 hours treatment; read-out: pAKT-S743 median IC50
Description: The phospho-substrates of PI3K-AKT-mTOR axis were used as the readouts to reflect pathway inhibition. Cells were seeded at 60-80% confluency per well in 96-well cell culture plates. After overnight incubation at 37° C. 5% CO2, cells were treated with compounds and vehicle at 37° C. for 2 hours. […] All measurements where at least done in duplicates and confirmed by independent repetition. Alternatively pAKT-S473 was measured using the “Akt Duplex” of the MULTI-SPOT® Assay System (Fa. Meso Scale Discovery, Cat# N41100B-1) following manufacturers instructions. Each assay used 20 μg of protein extract and measured total AKT and p-AKT content simultaneously in one well. All measurements where at least done in duplicates and confirmed by independent repetition. Values for P-AKT are expressed as percentage of P-AKT level compared to total-AKT content of the extracts.

[2] = biological target: His-tagged human recombinant kinase full-length Akt1 (Homo sapiens (Human), UniProt P31749); test: Akt1 kinase assay (TR-FRET); assay type: biochemical; settings: 10 μM ATP, read-out: Akt1, median IC50
From the text: Biological Assay 1.0: Akt1 Kinase Assay
Akt1 inhibitory activity of compounds of the present invention was quantified employing the Akt1 TR-FRET assay as described in the following paragraphs.
His-tagged human recombinant kinase full-length Akt1 expressed in insect cells was purchased form Invitrogen (part number PV 3599). As substrate for the kinase reaction the biotinylated peptide biotin-Ahx-KKLNRTLSFAEPG (C-terminus in amide form) was used which can be purchased e.g. from the company Biosynthan GmbH (Berlin-Buch, Germany).
For the assay 50 nl of a 100 fold concentrated solution of the test compound in DMSO was pipetted into a black low volume 384 well microtiter plate (Greiner Bio-One, Frickenhausen, Germany), 2 μl of a solution of Akt1 in assay buffer [50 mM TRIS/HCl pH 7.5, 5 mM MgCl2, 1 mM dithiothreitol, 0.02% (v/v) Triton X-100 (Sigma)] were added and the mixture was incubated for 15 min at 22° C. to allow prebinding of the test compounds to the enzyme before the start of the kinase reaction. Then the kinase reaction was started by the addition of 3 μl of a solution of adenosine-tri-phosphate (ATP, 16.7 μM=>final conc. in the 5 μl assay volume is 10 μM) and substrate (1.67 μM=>final conc. in the 5 μl assay volume is 1 μM) in assay buffer and the resulting mixture was incubated for a reaction time of 60 min at 22° C. The concentration of Akt1 in the assay was adjusted depending of the activity of the enzyme lot and was chosen appropriate to have the assay in the linear range, typical enzyme concentrations were in the range of about 0.05 ng/μl (final conc. in the 5 μl assay volume).
The reaction was stopped by the addition of 5 μl of a solution of HTRF detection reagents (200 nM streptavidine-XL665 [Cisbio] and 1.5 nM anti-phosho-Serine antibody [Millipore, cat. #35-001] and 0.75 nM LANCE Eu-W 1024 labeled anti-mouse IgG antibody [Perkin Elmer]) in an aqueous EDTA-solution (100 mM EDTA, 0.1% (w/v) bovine serum albumin in 50 mM HEPES/NaOH pH 7.5).
The resulting mixture was incubated 1 h at 22° C. to allow the binding of the biotinylated phosphorylated peptide to the streptavidine-XL665 and the antibodies. Subsequently the amount of phosphorylated substrate was evaluated by measurement of the resonance energy transfer from the anti-mouse-IgG-Eu-Chelate to the streptavidine-XL665. Therefore, the fluorescence emissions at 620 nm and 665 nm after excitation at 350 nm was measured in a HTRF reader, e.g. a Rubystar (BMG Labtechnologies, Offenburg, Germany) or a Viewlux (Perkin-Elmer). The ratio of the emissions at 665 nm and at […] was taken as the measure for the amount of phosphorylated substrate. The data were normalised (enzyme reaction without inhibitor=0% inhibition, all other assay components but no enzyme=100% inhibition).

[3] = tested on: p-4E-BP1 at T70; test: Cellular p-4E-BP1-T70 assay in KPL-4 cells; assay type: cell-based; settings: Homo sapiens, KPL4; KPL-4 breast tumour cell line, 2 hours treatment; read-out: P4EBP1-T70 median IC50
Description: The molecular mechanism of action was investigated in a set of experiments to assess the inhibition of the PI3K-AKT-mTOR pathway in responsive cell lines such as KPL-4 breast tumour cell line (PIK3CA^H1047R, HER2^O/E and hormone independent). The phospho-substrates of PI3K-AKT-mTOR axis were used as the readouts to reflect pathway inhibition. Cells were seeded at 60-80% confluency per well in 96-well cell culture plates. After overnight incubation at 37° C. 5% CO2, cells were treated with compounds and vehicle at 37° C. for 2 hours. Thereafter, cells were lysed in 150 μl lysis buffer and the levels of phospho-AKT at T308 and S473 and p-4E-BP1 at T70 sites were determined with the corresponding AlphaScreen® SureFire® assay kits (Perkin Elmer: 4E-BP1 Assay Kit Cat # TRG4E2S10K; Akt 1/2/3 p-Ser 473 #TGRA4S500 and Akt 1/2/3 p-Thr 308 #TGRA3S500 as well as IgG detection Kit #6760617M) as described in the manuals. All measurements where at least done in duplicates and confirmed by independent repetition. Alternatively pAKT-S473 was measured using the “Akt Duplex” of the MULTI-SPOT® Assay System (Fa. Meso Scale Discovery, Cat# N41100B-1) following manufacturers instructions. Each assay used 20 μg of protein extract and measured total AKT and p-AKT content simultaneously in one well. All measurements where at least done in duplicates and confirmed by independent repetition. Values for P-AKT are expressed as percentage of P-AKT level compared to total-AKT content of the extracts.

His-tagged human recombinant kinase full-length Akt1, sequence (P31749 whole entry): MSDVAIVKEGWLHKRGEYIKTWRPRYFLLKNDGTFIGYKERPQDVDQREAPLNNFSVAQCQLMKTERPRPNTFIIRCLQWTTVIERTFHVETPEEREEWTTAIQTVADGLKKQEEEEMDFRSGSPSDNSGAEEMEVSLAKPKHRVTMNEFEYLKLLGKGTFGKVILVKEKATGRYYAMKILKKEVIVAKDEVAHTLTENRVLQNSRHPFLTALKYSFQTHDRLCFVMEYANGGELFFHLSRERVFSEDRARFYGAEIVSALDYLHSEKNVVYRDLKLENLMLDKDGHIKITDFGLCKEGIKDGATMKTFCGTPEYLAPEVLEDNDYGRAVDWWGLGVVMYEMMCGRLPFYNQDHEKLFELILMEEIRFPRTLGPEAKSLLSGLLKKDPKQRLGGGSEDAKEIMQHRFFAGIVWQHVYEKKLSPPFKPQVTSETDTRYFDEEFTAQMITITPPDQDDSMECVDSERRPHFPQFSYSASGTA

Structure (SMILES)	IC50 [1]	IC50 [2]	IC50 [3]
COc1nc(Br)cn2c(-c3ccccc3)c(-c3ccc(C4(N)CCC4)cc3)nc12 [Example 3, 1-[4-(6-Bromo-8-methoxy-3-phenylimidazo[1,2-a]pyrazin-2-yl)phenyl]cyclobutanamine]	190 nM	22 nM	1400 nM
CCc1cn2c(-c3ccccc3)c(-c3ccc(C4(N)CCC4)cc3)nc2c(OC)n1 [Example 4, 1-[4-(6-Ethyl-8-methoxy-3-phenylimidazo[1,2-a]pyrazin-2-yl)phenyl]cyclobutanamine]	85 nM	110 nM	380 nM
COC(=O)c1cn2c(-c3ccccc3)c(-c3ccc(C4(N)CCC4)cc3)nc2c(OC)n1 [Example 7, Methyl 2-[4-(1-aminocyclobutyl)phenyl]-8-methoxy-3-phenylimidazo[1,2-a]pyrazine-6-carboxylate]	44 nM	64 nM	43 nM

These reach a lower IC50 [1]. Values come first.

IC50 [1]	IC50 [2]	IC50 [3]	Structure (SMILES)
27 nM	61 nM	1100 nM	Cc1cn2c(-c3ccccc3)c(-c3ccc(C4(N)CCC4)cc3)nc2c(C)n1 [Example 2, 1-[4-(6,8-Dimethyl-3-phenylimidazo[1,2-a]pyrazin-2-yl)phenyl]-cyclobutanamine]
20 nM	110 nM	18 nM	NC(=O)c1cn2c(-c3ccccc3)c(-c3ccc(C4(N)CCC4)cc3)nc2cn1 [Example 6, 2-[4-(1-Aminocyclobutyl)phenyl]-3-phenylimidazo[1,2-a]pyrazine-6-carboxamide]
7.5 nM	29 nM	18 nM	COc1nc(C(N)=O)cn2c(-c3ccccc3)c(-c3ccc(C4(N)CCC4)cc3)nc12 [Example 8, 2-[4-(1-Aminocyclobutyl)phenyl]-8-methoxy-3-phenylimidazo[1,2-a]pyrazine-6-carboxamide]
